The target of assay [1] is NAMPT (Homo sapiens, UniProt P43490). In words: TR-FRET Binding Assay of NAMPT with PRPP. To be noted: with 200 μM PRPP and 2.5 mM ATP; 2 nM NAMPT, 2 nM probe, 16 hours equilibration. Put shortly:
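Run in the presence of substrates (200 μM PRPP, 2.5 mM ATP) with final 2 nM NAMPT, 2 nM probe, 1 nM Tb-anti-His antibody and 2% DMSO. Mixtures equilibrated 16 h before TR-FRET measurement so test compounds could be enzymatically modified.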
(In general: Time-resolved FRET reads energy transfer from a long-lived donor to a nearby acceptor.)

In assay [2] the test system is PC3 cells. In words: NAMPT Cell Proliferation Assay. Type of assay: cell-based. The conditions noted are these: Homo sapiens, PC-3, 120 h, 5 days incubation, cell viability by Cell Titer Glo. Put shortly:
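Proliferation of PC3 cells treated 5 days with a 10-fold compound series (top 10 μM) was quantified by Cell Titer Glo luminescence; IC50s were fitted from percent inhibition.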
In general terms: ATP-based viability assays read luminescence as a measure of living cells.

Assay [3] addresses NAMPT (human, recombinant, C-terminally His-tagged) (Homo sapiens, UniProt P43490). In words: Time-Resolved Fluorescence Resonance Energy Transfer (TR-FRET) Binding Assay of NAMPT. The conditions noted are these: without substrates; 6.8 nM NAMPT, 200 nM probe, 3 hours equilibration. Summed up: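 Probe displacement by compound was measured with 6.8 nM NAMPT, 200 nM Oregon Green 488-conjugated nicotinamide-competitive inhibitor probe and 1 nM Tb-anti-His antibody in 50 mM HEPES pH 7.5, 100 mM NaCl, 10 mM MgCl2, 1 mM DTT, 1% glycerol, 2% DMSO (final). After 3 h at room temperature, TR-FRET was read; IC50 from four-parameter logistic fit.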

Sequence of NAMPT (P43490 whole entry): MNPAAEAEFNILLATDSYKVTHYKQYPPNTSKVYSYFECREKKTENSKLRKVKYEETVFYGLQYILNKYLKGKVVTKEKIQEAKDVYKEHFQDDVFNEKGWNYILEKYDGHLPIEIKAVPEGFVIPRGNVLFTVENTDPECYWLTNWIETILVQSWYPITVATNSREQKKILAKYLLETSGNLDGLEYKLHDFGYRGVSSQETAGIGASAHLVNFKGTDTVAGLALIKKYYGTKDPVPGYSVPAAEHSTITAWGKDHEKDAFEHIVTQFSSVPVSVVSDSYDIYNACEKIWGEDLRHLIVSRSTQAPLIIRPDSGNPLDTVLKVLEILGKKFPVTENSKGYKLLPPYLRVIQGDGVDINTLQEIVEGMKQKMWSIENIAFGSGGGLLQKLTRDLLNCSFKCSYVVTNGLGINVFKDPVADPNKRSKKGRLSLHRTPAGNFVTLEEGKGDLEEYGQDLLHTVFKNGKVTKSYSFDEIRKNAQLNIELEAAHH
Sequence of NAMPT (human, recombinant, C-terminally His-tagged) (P43490 whole entry): as above

For the compound `COc1ccccc1C(=O)N1CCC(c2ccc(C(=O)NCc3ccn4ccnc4c3)s2)C1` (stereo not drawn) [Example 760, N-(imidazo[1,2-a]pyridin-7-ylmethyl)-5-[1-(2-methoxybenzoyl)pyrrolidin-3-yl]thiophene-2-carboxamide], the IC50 (in general, the concentration that inhibits the measured activity by half) in assay [1] was determined as 0.71 nM; in assay [2], 1.19 nM; in assay [3], 28.9 nM.
Regarding `O=C(NCc1ccn2ccnc2c1)c1ccc(C2CCN(C(=O)Cc3cccc(F)c3)C2)s1` (stereo not drawn) [Example 761, 5-{1-[(3-fluorophenyl)acetyl]pyrrolidin-3-yl}-N-(imidazo[1,2-a]pyridin-7-ylmethyl)thiophene-2-carboxamide], the IC50 amounted to 0.394 nM in assay [1], 27.7 nM in assay [2] and 94.4 nM in assay [3].
The corresponding values for `O=C(NCc1ccn2ccnc2c1)c1ccc(C2CCN(C(=O)c3cccc(F)c3)C2)s1` (stereo not drawn) [Example 762, 5-[1-(3-fluorobenzoyl)pyrrolidin-3-yl]-N-(imidazo[1,2-a]pyridin-7-ylmethyl)thiophene-2-carboxamide] are 0.506 nM, 1.12 nM and 30.1 nM.
On the same counts, the results for `O=C(NCc1ccn2ccnc2c1)c1ccc(C2CCN(C(=O)c3ccc(F)cc3)C2)s1` (stereo not drawn) [Example 763, 5-[1-(4-fluorobenzoyl)pyrrolidin-3-yl]-N-(imidazo[1,2-a]pyridin-7-ylmethyl)thiophene-2-carboxamide] are 0.478 nM, 2.31 nM and 48.5 nM.
The corresponding values for `O=C(NCc1ccn2ccnc2c1)c1ccc(C2CCN(C(=O)Cc3cc(F)cc(F)c3)C2)s1` (stereo not drawn) [Example 764, 5-{1[(3,5-difluorophenyl)acetyl]pyrrolidin-3-yl}-N-(imidazo[1,2-a]pyridin-7-ylmethyl)thiophene-2-carboxamide] are 0.465 nM, 68.7 nM and 135 nM.
For `O=C(NCc1ccn2ccnc2c1)c1ccc(C2CCN(C(=O)Cc3ccccc3F)C2)s1` (stereo not drawn) [Example 765, 5-{1-[(2-fluorophenyl)acetyl]pyrrolidin-3-yl}-N-(imidazo[1,2-a]pyridin-7-ylmethyl)thiophene-2-carboxamide], the IC50 is 0.782 nM in assay [1], 2.91 nM in assay [2] and 36.5 nM in assay [3].
On the same counts, the results for `N#Cc1ccc(C(=O)N2CCC(c3ccc(C(=O)NCc4ccn5ccnc5c4)s3)C2)cc1` (stereo not drawn) [Example 766, 5-[1-(4-cyanobenzoyl)pyrrolidin-3-yl]-N-(imidazo[1,2-a]pyridin-7-ylmethyl)thiophene-2-carboxamide] are 0.581 nM, 6.36 nM and 61.5 nM.
The corresponding values for `CC1(C(=O)N2CCC(c3ccc(C(=O)NCc4ccn5ccnc5c4)s3)C2)COC1` (stereo not drawn) [Example 767, N-(imidazo[1,2-a]pyridin-7-ylmethyl)-5-{1-[(3-methyloxetan-3-yl)carbonyl]pyrrolidin-3-yl}thiophene-2-carboxamide] are 0.64 nM, 67.2 nM and 265 nM.
On the same counts, the results for `O=C(NCc1ccn2ccnc2c1)c1ccc(C2CCN(C(=O)c3cc(F)cc(F)c3)C2)s1` (stereo not drawn) [Example 768, 5-[1-(3,5-difluorobenzoyl)pyrrolidin-3-yl]-N-(imidazo[1,2-a]pyridin-7-ylmethyl)thiophene-2-carboxamide] are 0.672 nM, 0.905 nM and 28.1 nM.
As for `O=C(NCc1ccn2ccnc2c1)c1ccc(C2CCN(C(=O)C3CCCC3)C2)s1` (stereo not drawn) [Example 769, 5-[1-(cyclopentylcarbonyl)pyrrolidin-3-yl]-N-(imidazo[1,2-a]pyridin-7-ylmethyl)thiophene-2-carboxamide], the IC50 in assay [1] worked out at 0.705 nM; in assay [2], 5.26 nM; in assay [3], 98.4 nM.
On the same counts, the results for `O=C(NCc1ccn2ccnc2c1)c1ccc(C2CCN(C(=O)c3ccc(Cl)cc3)C2)s1` (stereo not drawn) [Example 770, 5-[1-(4-chlorobenzoyl)pyrrolidin-3-yl]-N-(imidazo[1,2-a]pyridin-7-ylmethyl)thiophene-2-carboxamide] are 0.735 nM, 6 nM and 38.8 nM.
On the same counts, the results for `Cn1cccc1C(=O)N1CCC(c2ccc(C(=O)NCc3ccn4ccnc4c3)s2)C1` (stereo not drawn) [Example 771, N-(imidazo[1,2-a]pyridin-7-ylmethyl)-5-{1-[(1-methyl-1H-pyrrol-2-yl)carbonyl]pyrrolidin-3-yl}thiophene-2-carboxamide] are 0.573 nM, 3.47 nM and 70.8 nM.
For the compound `O=C(NCc1ccn2ccnc2c1)c1ccc(C2CCN(C(=O)c3ccc(F)cc3F)C2)s1` (stereo not drawn) [Example 772, 5-[1-(2,4-difluorobenzoyl)pyrrolidin-3-yl]-N-(imidazo[1,2-a]pyridin-7-ylmethyl)thiophene-2-carboxamide], the figures for the IC50 in assay [1], in assay [2] and in assay [3] were 0.828 nM, 2.4 nM and 61.5 nM, respectively.
As for `O=C(NCc1ccn2ccnc2c1)c1ccc(C2CCN(C(=O)c3ccncc3)C2)s1` (stereo not drawn) [Example 773, N-(imidazo[1,2-a]pyridin-7-ylmethyl)-5-[1-(pyridin-4-ylcarbonyl)pyrrolidin-3-yl]thiophene-2-carboxamide], the IC50 in assay [1] stood at 0.773 nM; in assay [2], 9.53 nM; in assay [3], 72.6 nM.
With `O=C(NCc1ccn2ccnc2c1)c1ccc(C2CCN(C(=O)c3ccccn3)C2)s1` (stereo not drawn) [Example 774, N-(imidazo[1,2-a]pyridin-7-ylmethyl)-5-[1-(pyridin-2-ylcarbonyl)pyrrolidin-3-yl]thiophene-2-carboxamide], the IC50 in assay [1] stood at 0.46 nM; in assay [2] it was 7.07 nM; in assay [3] it was 103 nM.
On the same counts, the results for `Cn1cc(C(=O)N2CCC(c3ccc(C(=O)NCc4ccn5ccnc5c4)s3)C2)cn1` (stereo not drawn) [Example 775, N-(imidazo[1,2-a]pyridin-7-ylmethyl)-5-{1-[(1-methyl-1H-pyrazol-4-yl)carbonyl]pyrrolidin-3-yl}thiophene-2-carboxamide] are 0.538 nM, 60.9 nM and 51.9 nM.
On the same counts, the results for `O=C(NCc1ccn2ccnc2c1)c1ccc(C2CCN(C(=O)c3ccccc3F)C2)s1` (stereo not drawn) [Example 776, 5-[1-(2-fluorobenzoyl)pyrrolidin-3-yl]-N-(imidazo[1,2-a]pyridin-7-ylmethyl)thiophene-2-carboxamide] are 0.169 nM, 2.1 nM and 21.5 nM.
The corresponding values for `CC/C=C(\C)C(=O)N1CCC(c2ccc(C(=O)NCc3ccn4ccnc4c3)s2)C1` (stereo not drawn) [Example 777, N-(imidazo[1,2-a]pyridin-7-ylmethyl)-5-{1-[(2E)-2-methylpent-2-enoyl]pyrrolidin-3-yl}thiophene-2-carboxamide] are 0.92 nM, 1.26 nM and 39.4 nM.
Regarding `Cc1cc(C(=O)N2CCC(c3ccc(C(=O)NCc4ccn5ccnc5c4)s3)C2)c(C)o1` (stereo not drawn) [Example 778, 5-{1-[(2,5-dimethylfuran-3-yl)carbonyl]pyrrolidin-3-yl}-N-(imidazo[1,2-a]pyridin-7-ylmethyl)thiophene-2-carboxamide], the IC50 in assay [1] came to 0.414 nM; in assay [2], 0.896 nM; in assay [3] it was 27.6 nM.
The corresponding values for `O=C(NCc1ccn2ccnc2c1)c1ccc(C2CCN(C(=O)c3cccc(Cl)c3)C2)s1` (stereo not drawn) [Example 779, 5-[1-(3-chlorobenzoyl)pyrrolidin-3-yl]-N-(imidazo[1,2-a]pyridin-7-ylmethyl)thiophene-2-carboxamide] are 0.603 nM, 0.499 nM and 14.2 nM.
On the same counts, the results for `CCC(=O)N1CCC(c2ccc(C(=O)NCc3ccn4ccnc4c3)s2)C1` (stereo not drawn) [Example 780, N-(imidazo[1,2-a]pyridin-7-ylmethyl)-5-(1-propanoylpyrrolidin-3-yl)thiophene-2-carboxamide] are 0.382 nM, 81.7 nM and 250 nM.
On to `N#CC1(C(=O)N2CCC(c3ccc(C(=O)NCc4ccn5ccnc5c4)s3)C2)CC1` (stereo not drawn) [Example 781, 5-{1-[(1-cyanocyclopropyl)carbonyl]pyrrolidin-3-yl}-N-(imidazo[1,2-a]pyridin-7-ylmethyl)thiophene-2-carboxamide], for which the concentration for half-maximal inhibition (IC50) in assay [1] was determined as 0.839 nM; in assay [2] it was 7.27 nM; in assay [3], 87.5 nM.
Consider `CCCC(=O)N1CCC(c2ccc(C(=O)NCc3ccn4ccnc4c3)s2)C1` (stereo not drawn) [Example 782, 5-(1-butanoylpyrrolidin-3-yl)-N-(imidazo[1,2-a]pyridin-7-ylmethyl)thiophene-2-carboxamide], for which the figures for the IC50 in assay [1], in assay [2] and in assay [3] were 0.466 nM, 24.7 nM and 134 nM, respectively.
On the same counts, the results for `O=C(NCc1ccn2ccnc2c1)c1ccc(C2CCN(C(=O)c3ccco3)C2)s1` (stereo not drawn) [Example 783, 5-[1-(furan-2-ylcarbonyl)pyrrolidin-3-yl]-N-(imidazo[1,2-a]pyridin-7-ylmethyl)thiophene-2-carboxamide] are 0.907 nM, 9.8 nM and 64.4 nM.

Values taken from patent publication US9187472B2 (AbbVie Inc., priority 2012, dated 2015).
